Assay [1] concerns the target T1, Cell surface CD73 of U87 MG human glioblastoma cells (Homo sapiens, UniProt P21589).
T1 construct: Cell surface CD73 catalyzes the conversion of adenosine monophosphate (AMP) to adenosine and inorganic phosphate; endogenous in cells; host or cells: U87 MG human glioblastoma cells
T1 sequence (P21589 27-549): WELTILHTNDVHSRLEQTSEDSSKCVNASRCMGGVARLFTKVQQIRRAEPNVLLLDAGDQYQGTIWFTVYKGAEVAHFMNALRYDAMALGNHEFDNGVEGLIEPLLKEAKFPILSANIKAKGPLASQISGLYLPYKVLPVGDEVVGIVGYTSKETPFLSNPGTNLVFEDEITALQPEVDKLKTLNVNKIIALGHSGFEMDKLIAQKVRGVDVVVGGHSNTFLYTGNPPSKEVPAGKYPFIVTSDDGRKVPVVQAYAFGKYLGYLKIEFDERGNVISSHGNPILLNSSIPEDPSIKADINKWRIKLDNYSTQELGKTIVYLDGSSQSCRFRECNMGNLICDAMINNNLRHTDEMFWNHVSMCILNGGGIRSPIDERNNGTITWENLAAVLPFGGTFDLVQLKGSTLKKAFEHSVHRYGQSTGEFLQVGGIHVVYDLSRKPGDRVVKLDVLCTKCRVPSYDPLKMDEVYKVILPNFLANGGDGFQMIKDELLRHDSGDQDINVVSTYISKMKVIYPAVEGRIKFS
The assay can be described thus: CD73 Cellular Assay. In kind it is cell-based. Conditions: 5000 cells per well, 30 μM AMP substrate, read-out: Potency (IC50, CD73 cellular assay). The method, boiled down:
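U87 MG cells (5000/well) preincubated with compound 30 min at 37 °C, 5% CO2, in HEPES-buffered saline pH 7.4 with 0.5% DMSO, then 30 μM AMP (final) for 50 min. Released phosphate in supernatant read colorimetrically at 635 nm; IC50 from four-parameter logistic fit versus cells-plus-substrate and cells-only controls.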

Assay [2] addresses T2, Recombinant Human 5′-Nucleotidase (CD73) (Homo sapiens, UniProt P21589).
T2 construct: CHO derived CD73 (Trp27-Lys547), with a C-terminal 6-His tag; 6-His (C); purchased R&D 5795-EN; host or cells: CHO
T2 sequence (P21589 27-547): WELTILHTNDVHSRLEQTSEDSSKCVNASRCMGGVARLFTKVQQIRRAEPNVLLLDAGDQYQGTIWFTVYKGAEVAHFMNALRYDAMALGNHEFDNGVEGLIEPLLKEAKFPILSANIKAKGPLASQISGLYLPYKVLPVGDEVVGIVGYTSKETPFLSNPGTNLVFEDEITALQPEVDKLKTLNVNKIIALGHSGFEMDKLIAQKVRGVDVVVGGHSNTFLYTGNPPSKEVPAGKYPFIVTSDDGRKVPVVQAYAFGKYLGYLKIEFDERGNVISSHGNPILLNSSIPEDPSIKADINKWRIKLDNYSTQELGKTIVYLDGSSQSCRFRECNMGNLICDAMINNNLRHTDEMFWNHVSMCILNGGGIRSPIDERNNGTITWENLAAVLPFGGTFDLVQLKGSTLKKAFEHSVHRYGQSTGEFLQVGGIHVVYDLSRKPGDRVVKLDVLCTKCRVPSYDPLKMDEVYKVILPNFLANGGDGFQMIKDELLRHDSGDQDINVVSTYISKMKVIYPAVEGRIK
The assay can be described thus: CD73 Enzyme Assay. The assay is classed as biochemical. As to conditions: human CD73 0.5 nM, AMP 30 μM, PiColorLock phosphate detection; read-out: Potency (IC50, CD73 enzyme assay). The method in brief:
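Human CD73 (CHO-derived Trp27-Lys547, His-tagged; 0.5 nM final) was preincubated with compound for 15 min at 25° C. in Tris pH 7.5 buffer with MgCl2. It then reacted with 30 μM AMP for 20 min at 37° C., and released phosphate was read by malachite green absorbance at 635 nm. IC50 came from four-parameter fits against enzyme and no-enzyme controls.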

The test system of assay [3] is CT-26 murine colon carcinoma. The assay can be described thus: subcutaneous CT-26 murine colon carcinoma syngeneic model, combination therapy. In kind it is in vivo. Conditions: combination with anti-mPDI antibody 10 mg/kg i.p. twice weekly, 4 doses; compound 10 mg/kg iv once a day from day 6 post implant; CT-26 in BALB/c female mice. The method, then: Some compounds were evaluated preclinically for in vivo therapeutic efficacy as single agents or in combination with other agents. Compounds of the invention show potent anti-tumor effects when dosed in combination with, for example, an anti-mPDI antibody as evidenced by reducing tumor volume in a subcutaneous CT-26 murine colon carcinoma syngeneic model in BALB/c female mice. CT-26 tumor cells were implanted subcutaneously into BALB/c female mice for each experiment. Anti-mPDl antibody (10 mg/kg) was dosed i.p. starting on study day 6 post implant twice weekly for a total of 4 doses. Compound No. 65 (10 mg/kg) or vehicle was administered iv once a day starting on day 6 post implant.

Consider three compounds from patent US20220204539A1, “CD73 INHIBITORS” (BioArdis LLC, priority 2019, published 2022).

What is called IC50 is the concentration that gives 50% inhibition. For the compound `O=P(O)(O)CP(=O)(O)OC[C@H]1O[C@@H](c2cnc3c(N4CCCC4)nc(Cl)nn23)[C@H](O)[C@@H]1O` [Compound 65, [({[(2R,3S,4R,5S)-5-[2-chloro-4-(pyrrolidin-1-yl)imidazo[2,1-f][1,2,4]triazin-7-yl]-3,4-dihydroxyoxolan-2-yl]methoxy}(hydroxy)phosphoryl)methyl]phosphonic Acid], the values for the IC50 in assay [1] and in assay [2] were under 1 nM and under 10 nM, respectively. Further, the tumor volume result in assay [3] is given as “reduction in tumor volume”.

On to `N#Cc1nc(NC2CCCC2)c2ncc([C@@H]3O[C@H](COP(=O)(O)CP(=O)(O)O)[C@@H](O)[C@H]3O)n2n1` [Compound 62, (((((2R,3S,4R,5S)-5-(2-cyano-4-(cyclopentylamino)imidazo[2,1-f][1,2,4]triazin-7-yl)-3,4-dihydroxytetrahydrofuran-2-yl)methoxy)(hydroxy)phosphoryl)methyl)phosphonic Acid], for which the IC50 in assay [1] is under 1 nM; in assay [2] it was under 10 nM.

On to `C[C@H](Nc1nc(Cl)nn2c([C@@H]3O[C@H](COP(=O)(O)CP(=O)(O)O)[C@@H](O)[C@H]3O)cnc12)c1ccc(Cl)c(Cl)c1` [Compound 53, (((((2R,3S,4R,5S)-5-(2-chloro-4-(((S)-1-(3,4-dichlorophenyl)ethyl)amino)imidazo[2,1-f][1,2,4]triazin-7-yl)-3,4-dihydroxytetrahydrofuran-2-yl)methoxy)(hydroxy)phosphoryl)methyl)phosphonic acid], for which the IC50 is under 1 nM in assay [1] and under 10 nM in assay [2].
